Assay [1] concerns the target NahK_ATCC15697 (Bifidobacterium longum, UniProt B7GN78). Put plainly: Substrate specificity CE assay, NahK_ATCC15697. It is filed as biochemical, Bifidobacterium infantis. As to the method: (§1) Substrates specificity assays. GlcNAc, GalNAc, and their derivatives (1 mM) were used as substrates in the presence of ATP (1 mM) and MgCl2 (5 mM) in a Tris-HCl buffer (pH 8.0, 200 mM) to analyze the substrate specificity of NahKs. Two concentrations (0.75 μM or 15 μM) of each NahK were used and the reactions were allowed to proceed for 10 min (for 0.75 μM NahK) or 30 min (for 15 μM NahK) at 37° C. […] All other conditions were the same as for GlcNAc, GalNAc, and their derivatives.
(§2) Capillary electrophoresis (CE) assays. Based on the detection of ADP and ATP in the reaction mixture by a UV detector, a capillary electrophoresis-based method was developed to directly measure the formation of ADP and N-acetylhexosamine-1-phosphate from ATP and N-acetylhexosamine for characterizing the activities of NahKs.

For assay [2], the target named is NahK_ATCC55813 (Bifidobacterium longum subsp. longum, UniProt E8MF12, D7V/R348H). It is filed as biochemical. Further details: made in house; host or cells: E. coli BL21(DE3). Here is the method: as §1, §2
Assay [3] deals with NahK. The assay is described as follows: Kinase reaction monitored by CE (ATP to ADP), NahK. It is filed as biochemical, Bifidobacterium infantis. The settings on record: monosaccharide 15 mM, ATP 18 mM, 37° C. Here is the method:
Capillary electrophoresis (CE) and thin-layer chromatograph (TLC) assays for kinase reactions. Kinase reactions were carried out at 37° C. in a total volume of 30 μL in Tris-HCl buffer (100 mM, pH 8.0) containing monosaccharide (15 mM), ATP (18 mM, 1.2 eq.), MgCl2 (10 mM), and a kinase (6 μg). These conditions were similar to those used for preparative-scale synthesis. After 1 hr, 4 hr, and 24 hr, an aliquot of 8 μL was withdrawn from each reaction mixture, boiled in a water bath for 5 min and stored at −20° C. until being analyzed by capillary electrophoresis (CE) and TLC. For TLC analysis, 0.5 μL of each sample was directly spotted on TLC plates, developed using suitable developing solvents, and stained with anisaldehyde sugar stain. For CE analysis, 1.5 μL of each sample was diluted into 30 μL and subjected to CE analysis as described above for pH profile studies.
General methods for compound purification and characterization. Chemicals were purchased and used without further purification. ^1H NMR and ^13C NMR spectra were recorded on a Varian Mercury 600 NMR spectrometer. High resolution electrospray ionization (ESI) mass spectra were obtained in negative mode using Thermo Electron LTQ-Orbitrap mass spectrometer. Silica gel 60 Å (Sorbent Technologies) was used for flash column chromatography. Thin-layer chromatography (TLC) was performed on silica gel plates 60 GF254 (Sorbent Technologies) using anisaldehyde sugar stain for detection. Gel filtration chromatography was performed with a column (100 cm×2.5 cm) packed with BioGel P-2 Fine resins (Bio-Rad). GlcN3 (T6-9) (Lau K, Thon, V, Yu H, Ding L, Chen Y, Muthana M M, Wong D, Huang R, and Chen X. Chem. Commun. 2010, 46, 6066-6068), ManF (T6-11) (Burkart M D, Zhang Z, Hung S-C, and Wong C-H. J. Am. Chem. Soc. 1997, 119, 11743-11746; Cao H, Li Y, Lau K, Muthana S, Yu H, Cheng J, Chokhawala H A, Sugiarto G, Zhang L, and Chen X. Org. Biomol. Chem. 2009, 7, 5137-5145), GalN3 (T6-4) and ManN3 (T6-14) (Yu H, Yu H, Karpel R, cand Chen X. Bioorg. Med. Chem. 2004, 12, 6427-6435) were previously synthesized using reported methods. NahK_ATCC15697, EcGalK, SpGalK, and PmPpA were overexpressed as described previously.

Where [4] appears, read: Glc, Gal, Man, ManNAc and derivatives, enzyme 15, 37° C. for 30 min (Table 3).
Setting [5] is: 0.75 μM enzyme, 10 min at 37° C., substrate 1 mM, ATP 1 mM.
[6] abbreviates: 15 μM enzyme, 30 min at 37° C., substrate 1 mM, ATP 1 mM (Table 2).

SMILES strings stand for the structures. Read-outs that look alike come from different tables or passages of the source.

With `OCC1CC(O)C(O)C(O)O1` (stereo not drawn) [4-deoxyMan], the “Percentage Conversion” value in assay [1] (setting [4]) stood at 37.1 ± 0.2%; in assay [2] (setting [4]), 23.9 ± 0.1%.

Regarding `O=C(CF)NC1C(O)OC(CO)[C@@H](O)C1O` (stereo partly drawn), the “Percentage Conversion” value in assay [1] (setting [4]) was determined as 12.0 ± 0.1%; in assay [2] (setting [4]), 9.1 ± 0.2%.

As for `O=C(NC1C(O)OC(CO)[C@H](O)C1O)c1ccccc1` (stereo partly drawn) [GalNBz], the “Percentage Conversion” value is reported as 0% in assay [1] (setting [5]), 62.2 ± 1.0% in assay [1] (setting [6]), 0% in assay [2] (setting [5]) and 51.9 ± 0.5% in assay [2] (setting [6]).

For the compound `NC1C(O)OC(CO)[C@@H](O)[C@@H]1O` (stereo partly drawn) [2-amino-2-deoxy-glucose], the “Percentage Conversion” value in assay [1] (setting [5]) was found to be 0%; in assay [1] (setting [6]) it was 15.0 ± 0.1%; in assay [2] (setting [5]) it was 0%; in assay [2] (setting [6]), 8.4 ± 0.1%. The “ATP Conversion” value was 11.9% in assay [3] (1 hr), 28.0% in assay [3] (4 hr) and 67.1% in assay [3] (24 hr).

Take `[N-]=[N+]=N[C@@H](C=O)[C@@H](OS(=O)(=O)O)[C@H](O)[C@H](O)CO` [3-O-sulfo-2-azido-2-deoxy glucose]: the “Percentage Conversion” value in assay [1] (setting [5]) turned out to be 0%; in assay [1] (setting [6]) it was 4.9 ± 0.1%; in assay [2] (setting [5]) it was 0%; in assay [2] (setting [6]), 3.9 ± 0.1%.

In the case of `CC(=O)N[C@@H]1C(O)O[C@H](CO)[C@@H](O)[C@@H]1O` (stereo partly drawn) [N-acetylmannosamine], the figures for the “Percentage Conversion” value in assay [1] (setting [4]) and in assay [2] (setting [4]) were 8.9 ± 0.1% and 5.5 ± 0.1%, respectively. The “ATP Conversion” value was determined as 11.4% in assay [3] (1 hr), 26.1% in assay [3] (4 hr) and 73.8% in assay [3] (24 hr).

As to `COCC1OC(O)C(NC(C)=O)[C@@H](O)[C@@H]1O` (stereo partly drawn) [N-acetyl-6-O-methylmannosamine], the “Percentage Conversion” value in assay [1] (setting [4]) is listed as 32.6 ± 0.1%; in assay [2] (setting [4]), 28.9 ± 0.1%.

Regarding `CCCC(=O)NC1C(O)OC(CO)[C@H](O)C1O` (stereo partly drawn) [GalNBu], the “Percentage Conversion” value in assay [1] (setting [5]) is on record as 12.1 ± 0.3%; in assay [2] (setting [5]), 24.0 ± 0.1%.

Turning to `[N-]=[N+]=NCC(=O)N[C@@H]1C(O)O[C@H](CO)[C@@H](O)[C@@H]1O` (stereo partly drawn) [N-azidoacetylmannosamine], the “Percentage Conversion” value in assay [1] (setting [4]) is 20.3 ± 0.3%; in assay [2] (setting [4]), 18.6 ± 0.4%.

For `CC(=O)NC1C(O)OC(CN=[N+]=[N-])[C@@H](O)C1O` (stereo partly drawn) [6-azido-6-deoxy-GlcNAc], the “Percentage Conversion” value turned out to be 0% in assay [1] (setting [5]), 37.2 ± 0.5% in assay [1] (setting [6]), 0% in assay [2] (setting [5]) and 23.4 ± 0.1% in assay [2] (setting [6]).

Consider `N[C@@H]1C(O)O[C@H](CO)[C@@H](O)[C@@H]1O` (stereo partly drawn) [T6-13 ManNH2, mannosamine], for which the “ATP Conversion” value in assay [3] (1 hr) amounted to 10.3%; in assay [3] (4 hr), 22.8%; in assay [3] (24 hr) it was 58.0%.

For the compound `CC(=O)NC1C(O)OC(COS(=O)(=O)O)[C@@H](O)C1O` (stereo partly drawn) [6-O-sulfo-GlcNAc], the “Percentage Conversion” value in assay [1] (setting [5]) is 0%; in assay [1] (setting [6]), 11.7 ± 0.2%; in assay [2] (setting [5]) it was 0%; in assay [2] (setting [6]), 6.6 ± 0.1%.

As for `[N-]=[N+]=NC1C(O)OC(COS(=O)(=O)O)[C@@H](O)[C@@H]1O` (stereo partly drawn) [6-O-sulfo-2-azido-2-deoxy glucose], the “Percentage Conversion” value is listed as 0% in assay [1] (setting [5]), 6.9 ± 0.1% in assay [1] (setting [6]), 0% in assay [2] (setting [5]) and 4.4 ± 0.1% in assay [2] (setting [6]).

As to `OCC1OC(O)C[C@@H](O)[C@@H]1O` (stereo partly drawn) [2-deoxy glucose], the “Percentage Conversion” value in assay [1] (setting [4]) was 44.8 ± 0.2%; in assay [2] (setting [4]) it was 28.4 ± 0.1%. Besides, the “ATP Conversion” value in assay [3] (1 hr) stood at 36.8%; in assay [3] (4 hr) it was 69.6%; in assay [3] (24 hr), 79.4%.

`CCCC(=O)NC1C(O)OC(CO)[C@@H](O)C1O` (stereo partly drawn) [GlcNBu]: the “Percentage Conversion” value in assay [1] (setting [5]) is 20.9 ± 0.6%; in assay [2] (setting [5]) it was 35.0 ± 2.0%.

In the case of `COC1C(O)OC(CO)[C@@H](O)C1O` (stereo partly drawn) [2Me-Man], the “Percentage Conversion” value in assay [1] (setting [4]) stood at 9.4 ± 0.5%; in assay [2] (setting [4]) it was 0%.

For the compound `COCC(=O)NC1C(O)OC(CO)[C@@H](O)C1O` (stereo partly drawn), the “Percentage Conversion” value in assay [1] (setting [4]) was determined as 12.0 ± 0.4%; in assay [2] (setting [4]), 7.4 ± 0.3%.

`O=C(NC1C(O)OC(CO)[C@@H](O)C1O)C(F)(F)F` (stereo partly drawn) [GlcNTFA]: the “Percentage Conversion” value in assay [1] (setting [5]) worked out at 10.7 ± 0.9%; in assay [2] (setting [5]), 16.2 ± 0.9%.

As for `[N-]=[N+]=NC1C(O)OC(CO)[C@@H](O)C1O` (stereo partly drawn) [2N3-Man], the “Percentage Conversion” value in assay [1] (setting [4]) was determined as 53.3 ± 0.1%; in assay [2] (setting [4]), 40.2 ± 0.2%. Besides, the “ATP Conversion” value is reported as 34.9% in assay [3] (1 hr), 65.9% in assay [3] (4 hr) and 76.4% in assay [3] (24 hr).

Take `CC(=O)NC1C(O)OC(CO)[C@@H](O)[C@@H]1O` (stereo partly drawn) [GlcNAc, N-acetylglucosamine]: the “Percentage Conversion” value in assay [1] (setting [5]) came to 35.4 ± 0.1%; in assay [2] (setting [5]), 42.3 ± 0.2%. Also, the “ATP Conversion” value in assay [3] (1 hr) is given as 72.6%; in assay [3] (4 hr), 84.6%; in assay [3] (24 hr), 85.5%.

In the case of `O=S(=O)(O)NC1C(O)OC(CO)[C@@H](O)C1O` (stereo partly drawn) [2-N-sulfo-glucose], the “Percentage Conversion” value in assay [1] (setting [5]) is 0%; in assay [1] (setting [6]), 6.4 ± 0.2%; in assay [2] (setting [5]) it was 0%; in assay [2] (setting [6]), 4.0 ± 0.1%.

Regarding `[N-]=[N+]=NCC(=O)NC1C(O)OC(CO)[C@@H](O)C1O` (stereo partly drawn) [GlcNAcN3], the figures for the “Percentage Conversion” value in assay [1] (setting [5]) and in assay [2] (setting [5]) were 11.5 ± 1.0% and 22.8 ± 0.4%, respectively.

For `O=C(CO)NC1C(O)OC(CO)[C@@H](O)C1O` (stereo partly drawn), the “Percentage Conversion” value in assay [1] (setting [4]) turned out to be 7.6 ± 0.1%; in assay [2] (setting [4]) it was 5.4 ± 0.2%.

For `[N-]=[N+]=NCC(=O)NC1C(O)OC(CO)[C@H](O)C1O` (stereo partly drawn) [GalNAcN3], the figures for the “Percentage Conversion” value in assay [1] (setting [5]) and in assay [2] (setting [5]) were 9.9 ± 0.6% and 21.0 ± 1.2%, respectively.

As for `CC(=O)NC1C(O)OC(C)[C@@H](O)C1O` (stereo partly drawn) [6-deoxy-GlcNAc], the “Percentage Conversion” value in assay [1] (setting [5]) is recorded as 4.4 ± 1.2%; in assay [1] (setting [6]), 41.8 ± 0.3%; in assay [2] (setting [5]), 2.1 ± 0.2%; in assay [2] (setting [6]), 36.3 ± 0.3%.

Regarding `O=C(NC1C(O)OC(CO)[C@H](O)C1O)C(F)(F)F` (stereo partly drawn) [GalNTFA], the “Percentage Conversion” value in assay [1] (setting [5]) stood at 11.2 ± 1.6%; in assay [2] (setting [5]), 21.8 ± 0.2%.

For the compound `O=C(NC1C(O)OC(COS(=O)(=O)O)[C@@H](O)C1O)C(F)(F)F` (stereo partly drawn) [6-O-sulfo-N-trifluoroacetyl glucosamine], the “Percentage Conversion” value in assay [1] (setting [5]) worked out at 0%; in assay [1] (setting [6]), 7.2 ± 0.1%; in assay [2] (setting [5]) it was 0%; in assay [2] (setting [6]) it was 3.3 ± 0.2%.

As to `O=C(NC1C(O)OC(CO)[C@@H](O)C1O)c1ccccc1` (stereo partly drawn) [GlcNBz], the “Percentage Conversion” value was 10.3 ± 0.4% in assay [1] (setting [5]) and 5.2 ± 0.2% in assay [2] (setting [5]).
